How the values were obtained:
[1] = target: T1, recombinant mouse CD38 Protein (Mus musculus, UniProt P56528); test: Fluorescence-based NAD+ hydrolase activity assay with mouse recombinant CD38 protein (Assay 5); assay type: biochemical; conditions: read-out: Assay 5 Arithmetic mean IC50
T1 construct: purchased R&D System
T1 sequence (P56528 1-304): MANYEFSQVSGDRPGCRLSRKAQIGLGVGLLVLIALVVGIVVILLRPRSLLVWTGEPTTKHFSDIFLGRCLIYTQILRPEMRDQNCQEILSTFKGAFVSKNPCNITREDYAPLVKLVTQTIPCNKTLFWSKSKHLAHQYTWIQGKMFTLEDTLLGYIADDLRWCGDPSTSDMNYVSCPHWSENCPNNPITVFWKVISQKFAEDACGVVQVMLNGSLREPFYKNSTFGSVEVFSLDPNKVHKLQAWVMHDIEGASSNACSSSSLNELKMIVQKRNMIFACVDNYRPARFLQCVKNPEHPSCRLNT
Procedure: This protocol was modified from the following references: Muller et al. (1983); Schultz et al. (2018); Matalonga et al. (2017); and de Oliveira et al. (2018), supra.
(§1) NAD+ hydrolase activity of the mouse recombinant CD38 protein treated with test compounds was measured using a fluorescence-based assay. Briefly, recombinant mouse CD38 Protein (R&D System) was resuspended in 44 μl/well of Sucrose-Tris Buffer (Sucrose 0.25 M, Tris pH 7.4 40 mM) and plated in a 96 well black plate (CORNING) at a density of 2.5 ng/well.
(§2) Each test compound was received in a powder state and dissolved in DMSO as a 25 mM stock solution. Each test compound was serially diluted in order to generate a dose-response curve. The dilution series of each test compound in DMSO was prepared at 50 times the concentrations to be assayed. Each test compound was diluted to generate a 5-fold dilution series of 8 concentrations from 20 μM to 0.256 nM in order to assay 8 final concentrations ranging from 400 nM to 25.6 pM. One μl of the 50× concentration compound series was added to each well of the plate containing 2.5 ng of protein in Sucrose-Tris buffer.
Each plate had the following intra plate controls: 3 wells containing cells treated with vehicle only (DMSO), 3 wells of cells treated with the reference compounds 78c at a final concentration of 50 nM and 2 wells containing only Sucrose-Tris buffer (used as a background value).
The reaction was started adding nicotinamide 1,N^6-etheno-adenine dinucleotide (Sigma Aldrich) to reach a final concentration of 80 µM. The samples were excited at 321-15 nm and the emission of fluorescence was measured at 410-20 nm at 37° C. every minute for 1 hr in a Clariostar Microplate® reader (BMG LABTECH). NAD+ hydrolase activity was calculated as the slope of the linear portion of the fluorescence-time curve using the MARS data analysis software (BMG LABTECH). The data were uploaded in the Collaborative Drug Design (CDD) Software and for each compound the IC50 was calculated by the software. Each compound was tested in 3 independent experiments on 3 separate days to establish the reproducibility of the results. For each plate, the z-factor was also calculated as a plate quality using the CDD software.

[2] = target: T2, recombinant human CD38 Protein (Homo sapiens, UniProt P28907); test: Fluorescence-based NAD+ cyclase activity assay with human recombinant CD38 protein (Assay 2); assay type: biochemical; conditions: read-out: Assay 2 Arithmetic mean IC50
T2 construct: purchased R&D System
T2 sequence (P28907 1-300): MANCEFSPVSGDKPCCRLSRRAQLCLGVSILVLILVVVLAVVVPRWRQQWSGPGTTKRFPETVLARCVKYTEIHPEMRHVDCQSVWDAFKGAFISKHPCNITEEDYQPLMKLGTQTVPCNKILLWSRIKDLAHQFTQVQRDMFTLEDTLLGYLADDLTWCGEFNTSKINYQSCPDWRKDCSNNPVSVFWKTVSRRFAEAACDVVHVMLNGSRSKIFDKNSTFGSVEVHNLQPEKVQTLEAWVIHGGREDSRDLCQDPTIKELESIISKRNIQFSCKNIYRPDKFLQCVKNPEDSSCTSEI
Procedure: This protocol was modified from the de Oliveira et al., 2018 reference, supra.
as §1, with “cyclase” for “hydrolase”, “human” for “mouse”, “96-well” for “96 well”, “125” for “2.5”
as §2, with “100” for “20”, “32” for “0.256”, “2 μM” for “400 nM”, “0.64 nM.” for “25.6 pM.”, “125” for “2.5”
The reaction was started adding nicotinamide guanine dinucleotide (NGD+) (Sigma Aldrich) to reach a final concentration of 150 µM. The samples were excited at 337-15 nm, and the emission of fluorescence was measured at 442-20 nm at 37° C. every minute for 1 hr in a Clariostar microplate reader (BMG LABTECH). NAD+ cyclase activity was calculated as the slope of the linear portion of the fluorescence-time curve using the MARS data analysis software (BMG LABTECH). The data were uploaded in the Collaborative Drug Design (CDD) Software, and for each compound the IC50 was calculated by the software. For each plate, the z-factor was also calculated as a plate quality using the CDD software.

IC50 [1]	IC50 [2]	SMILES
< 1 nM	1 to 50 nM	CNC(=O)c1ccc(NC(=O)c2cccc(-n3ccnc3)n2)cn1 [Compound 2]
1 to 50 nM	1 to 50 nM	NC(=O)c1ccc(NC(=O)c2cccc(-n3ccnc3)n2)cn1 [Compound 3]
< 1 nM	1000 to 10000 nM	Cc1cc(NC(=O)c2cccc(-n3ccnc3)n2)cc(C)n1 [Compound 7]
1 to 50 nM	51 to 1000 nM	O=C(Nc1ccnc(F)c1)c1cccc(-n2ccnc2)n1 [Compound 8]
1 to 50 nM	51 to 1000 nM	O=C(Nc1ccc(C(F)(F)F)nc1)c1cccc(-n2ccnc2)n1 [Compound 9]
1 to 50 nM	51 to 1000 nM	Cc1cc(NC(=O)c2cccc(-n3ccnc3)n2)ccn1 [Compound 11]
1 to 50 nM	51 to 1000 nM	COc1cc(NC(=O)c2cccc(-n3ccnc3)n2)ccn1 [Compound 12]
1 to 50 nM	51 to 1000 nM	O=C(Nc1ccncc1)c1cccc(-n2ccnc2)n1 [Compound 13]
1 to 50 nM	1000 to 10000 nM	Cc1ccc(NC(=O)c2cccc(-n3ccnc3)n2)cn1 [Compound 14]
1 to 50 nM	1000 to 10000 nM	CC(=O)N(C)c1ccc(NC(=O)c2cccc(-n3ccnc3)n2)cn1 [Compound 15]
1 to 50 nM	51 to 1000 nM	CC(=O)Nc1ccc(NC(=O)c2cccc(-n3ccnc3)n2)cn1 [Compound 16]
1 to 50 nM	1000 to 10000 nM	COc1ccc(NC(=O)c2cccc(-n3ccnc3)n2)cn1 [Compound 18]
1 to 50 nM	1000 to 10000 nM	O=C(Nc1cccnc1)c1cccc(-n2ccnc2)n1 [Compound 20]
1 to 50 nM	1000 to 10000 nM	O=C(Nc1ccc(F)nc1)c1cccc(-n2ccnc2)n1 [Compound 22]
1 to 50 nM	1000 to 10000 nM	O=C(Nc1ccncn1)c1cccc(-n2ccnc2)n1 [Compound 24]
1 to 50 nM	51 to 1000 nM	COC(=O)c1ccc(NC(=O)c2cccc(-n3ccnc3)n2)cn1 [Compound 27]
1 to 50 nM	1000 to 10000 nM	O=C(Nc1ccnc(C(F)(F)F)c1)c1cccc(-n2ccnc2)n1 [Compound 28]
< 1 nM	51 to 1000 nM	O=C(Nc1ccnc(C(F)(F)F)c1)c1cc(OCc2ccccc2)cc(-n2ccnc2)n1 [Compound 29, 4-(benzyloxy)-6-(1H-imidazol-1-yl)-N-[2-(trifluoromethyl)pyridin-4-yl]pyridine-2-carboxamide]
< 1 nM	51 to 1000 nM	O=C(Nc1ccnc(C(F)(F)F)c1)c1cc(OCC2CCOCC2)cc(-n2ccnc2)n1 [Compound 30, 6-(1H-imidazol-1-yl)-4-((tetrahydro-2H-pyran-4-yl)methoxy)-N-(2-(trifluoromethyl)pyridin-4-yl)picolinamide]

IC50 [1]	IC50 [2]	SMILES
< 1 nM	51 to 1000 nM	COCCOc1cc(C(=O)Nc2ccnc(C(F)(F)F)c2)nc(-n2ccnc2)c1 [Compound 31, 6-(1H-imidazol-1-yl)-4-(2-methoxyethoxy)-N-(2-(trifluoromethyl)pyridin-4-yl)picolinamide]
51 to 1000 nM	51 to 1000 nM	O=C(Nc1ccnc(C(F)(F)F)c1)c1cc(OC2CC2)cc(-n2ccnc2)n1 [Compound 32, 4-cyclopropoxy-6-(1H-imidazol-1-yl)-N-(2-(trifluoromethyl)pyridin-4-yl)picolinamide]
< 1 nM	51 to 1000 nM	CN(C)CCOc1cc(C(=O)Nc2ccnc(C(F)(F)F)c2)nc(-n2ccnc2)c1 [Compound 33]
< 1 nM	51 to 1000 nM	CC1(Oc2cc(C(=O)Nc3ccnc(C(F)(F)F)c3)nc(-n3ccnc3)c2)COC1 [Compound 34, 6-(1H-imidazol-1-yl)-4-((3-methyloxetan-3-yl)oxy)-N-(2-(trifluoromethyl)pyridin-4-yl)picolinamide]
< 1 nM	51 to 1000 nM	COc1cc(C(=O)Nc2ccnc(C(F)(F)F)c2)nc(-n2ccnc2)c1 [Compound 35, 6-(1H-imidazol-1-yl)-4-methoxy-N-(2-(trifluoromethyl)pyridin-4-yl)picolinamide]
1 to 50 nM	51 to 1000 nM	COc1cc(C(=O)Nc2cccnc2)nc(-n2ccnc2)c1 [Compound 36]
< 1 nM	51 to 1000 nM	COc1cc(C(=O)Nc2ccnc(C(F)(F)F)c2)nc(-n2ccnc2)n1 [Compound 37, 2-(1H-imidazol-1-yl)-6-methoxy-N-(2-(trifluoromethyl)pyridin-4-yl)pyrimidine-4-carboxamide]
< 1 nM	51 to 1000 nM	CCOc1cc(C(=O)Nc2ccnc(C(F)(F)F)c2)nc(-n2ccnc2)n1 [Compound 38]
< 1 nM	1 to 50 nM	COCCOc1cc(C(=O)Nc2ccnc(C(F)(F)F)c2)nc(-n2ccnc2)n1 [Compound 39, 2-(1H-imidazol-1-yl)-6-(2-methoxyethoxy)-N-(2-(trifluoromethyl)pyridin-4-yl)pyrimidine-4-carboxamide]
< 1 nM	51 to 1000 nM	O=C(Nc1ccnc(C(F)(F)F)c1)c1cc(OC2CC2)nc(-n2ccnc2)n1 [Compound 40]
1 to 50 nM	1000 to 10000 nM	Cn1cncc1-c1cccc(C(=O)Nc2cccnc2)n1 [Compound 42, 6-(1-methyl-1H-imidazol-5-yl)-N-(pyridin-3-yl)picolinamide]
1 to 50 nM	51 to 1000 nM	Cn1cncc1-c1cccc(C(=O)Nc2ccc(C(F)(F)F)nc2)n1 [Compound 43]
< 1 nM	51 to 1000 nM	Cc1cc(C(=O)Nc2ccncc2)nc(-c2nccn2C)c1 [Compound 45]
1 to 50 nM	51 to 1000 nM	Cn1ccnc1-c1cccc(C(=O)Nc2ccc(C(F)(F)F)nc2)n1 [Compound 47]
1 to 50 nM	1000 to 10000 nM	Cn1ccnc1-c1cccc(C(=O)Nc2cccnc2)n1 [Compound 48]
< 1 nM	1 to 50 nM	Cc1cc(C(=O)Nc2cccnc2)nc(-n2ccnc2)n1 [Compound 49, 2-(1H-imidazol-1-yl)-6-methyl-N-(pyridin-3-yl)pyrimidine-4-carboxamide]
< 1 nM	1 to 50 nM	Cc1cc(C(=O)Nc2ccncc2)nc(-n2ccnc2)n1 [Compound 50]
< 1 nM	51 to 1000 nM	O=C(Nc1ccnc(C(F)(F)F)c1)c1cc(C2CC2)nc(-n2ccnc2)n1 [Compound 51, 6-cyclopropyl-2-(1H-imidazol-1-yl)-N-(2-(trifluoromethyl)pyridin-4-yl)pyrimidine-4-carboxamide]
< 1 nM	1 to 50 nM	Cc1cc(C(=O)Nc2ccncc2)nc(-n2ccnc2)c1 [Compound 52, 6-(1H-imidazol-1-yl)-4-methyl-N-(pyridin-4-yl)picolinamide]

From patent US12509451B2, “Heteroaryl amide inhibitors of CD38” (NAPA THERAPEUTICS LTD., priority 2020, dated 2025)
